# In patent US4950602A, “Inhibition of lactate production by pyruvate adducts” (Cornell Research Foundation, Inc., priority 1987, dated 1990):
# pKi: −log10 of the molar value. Like-named read-outs stand apart in the source and are kept apart here.
# Experiments:
# [1] = test system: lactate dehydrogenase; assay: Reactive α-keto and α-hydroxy acids as inhibitors of lactate dehydrogenase; type: biochemical
# Method: (§1) Each of the enzymes was assayed by procedures in which change of absorbance at 340 nm due to NADH was followed essentially as described by Bergmeyer (1974, Methods of Enzymatic Analysis, 2nd Eng. Ed., Verlag Chemie Weinheim Academic Press, N.Y.) with the following exceptions. Phosphofructokinase was assayed according to the method of Lai et al (1984, J. Neurochem., 42:438-446). NAD^+ -linked isocitrate dehydrogenase was assayed as described by Lai and Clark (1976, Biochem. J., 154:423-432). Pyruvate and α-ketoglutarate dehydrogenase complexes were respectively assayed according to the methods of Lai and Sheu (1985, J. Neurochem., 45:1861-1868) and Lai and Cooper (1986) (J. Neurochem, 47:1376-1386).
# [2] = target: lactate dehydrogenase (dogfish enzyme) (Squalus acanthias, UniProt P00341); settings: Burgner and Ray 1984; cited from earlier work
# Chain of lactate dehydrogenase (dogfish enzyme) (P00341 whole entry): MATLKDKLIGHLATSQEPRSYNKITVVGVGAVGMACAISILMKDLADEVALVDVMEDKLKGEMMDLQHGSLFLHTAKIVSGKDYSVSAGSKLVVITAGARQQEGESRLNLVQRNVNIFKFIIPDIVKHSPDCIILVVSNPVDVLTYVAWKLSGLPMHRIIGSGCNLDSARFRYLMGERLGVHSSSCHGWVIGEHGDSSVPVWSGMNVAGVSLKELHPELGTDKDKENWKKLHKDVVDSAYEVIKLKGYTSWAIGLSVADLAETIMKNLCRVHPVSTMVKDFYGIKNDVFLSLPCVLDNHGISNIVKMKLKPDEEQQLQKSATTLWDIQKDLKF
# [3] = cited from earlier work; for stability in solution: Burgner and Ray 1984
# [4] = test system: rat brain lactate dehydrogenase; assay: Inhibition of rat brain lactate dehydrogenase (rat brain homogenate); type: biochemical; settings: rat brain homogenate, 0.24 mM pyruvate, 0.1 mM NADH, pH 7.2, 25° C.
# Method: as §1
# (§2) The reaction mixture (1 ml) contained 0.24 mM sodium pyruvate, 0.1 mM
# (§3) NADH, 100 mM potassium phosphate buffer (pH 7.2) and either purified
# (§4) bovine heart lactate dehydrogenase (0.01 U) or rat brain homogenate
# (§5) containing ~0.02 U of lactate dehydrogenase activity; 25° C.
# (§6) Since APADpyruvate adduct and RAP have a tendency to revert to pyruvate
# (§7) they were added to the reaction mixture just prior to addition of enzyme.
# (§8) Because the kinetics obtained with tightbinding inhibitors depends on the
# (§9) order of addition of substrates and inhibitors the enzyme was always adde
# (§10) last. Each value is the average of at least 3 determinations. Each of the […]
# [5] = target: T1, beef heart lactate dehydrogenase (Bos taurus, UniProt Q5E9B1); assay: Inhibition of beef heart lactate dehydrogenase (NADH absorbance at 340 nm); type: biochemical, bovine; settings: for Relative Activity (%) Beef Heart: 0.24 mM pyruvate, 0.1 mM NADH, pH 7.2, 25° C.
# T1 construct: purchased Worthington Biochemical Corporation (Freehold, N.J.); host or cells: beef heart
# T1 sequence (Q5E9B1 whole entry): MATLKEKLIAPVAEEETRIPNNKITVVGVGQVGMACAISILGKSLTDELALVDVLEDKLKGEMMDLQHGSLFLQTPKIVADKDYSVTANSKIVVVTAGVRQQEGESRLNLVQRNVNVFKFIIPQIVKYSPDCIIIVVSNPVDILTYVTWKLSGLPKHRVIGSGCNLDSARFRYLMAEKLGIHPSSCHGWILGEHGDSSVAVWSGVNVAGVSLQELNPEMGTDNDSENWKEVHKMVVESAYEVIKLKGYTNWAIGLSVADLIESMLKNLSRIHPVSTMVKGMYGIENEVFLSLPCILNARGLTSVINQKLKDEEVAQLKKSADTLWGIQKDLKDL
# Excerpt: Enzymes and enzyme assays. Rabbit muscle glyceraldehyde-3-phosphate dehydrogenase (80 U/mg: ammonium sulfate suspension), rabbit muscle glycerol-3-phosphate dehydrogenase (40 U/mg; ammonium sulfate suspension),beef liver glutamate dehydrogenase (120 U/mg: in 50% glycerol), mitochondrial pig heart malate dehydrogenase (1100 U/mg; in 50% glycerol) and yeast hexokinase (140 U/mg; ammonium sulfate suspension) were purchased from Boehringer Mannheim Corp. (Indianapolis). Beef heart lactate dehydrogenase (280 U/mg) was purchased from Worthington Biochemical Corporation (Freehold, N.J.). Porcine heart L-alanine aminotransferase (130 U/mg), rabbit muscle phosphofructokinase (140 U/mg; ammonium sulfate suspension), bovine heart α-ketoglutarate (8 U/mg) and pyruvate (5 U/mg) dehydrogenase complexes, sodium pyruvate, L-methionine-SR-sulfoximine, DL-vinylglycine, NAD^+, NADH and NAD^+ analogues (3-acetylpyridine, thionicotinamide, and 3-pyridinealdehyde adenine dinucleotides) were purchased from Sigma Chemical Company (St. Louis, Mo.).
# as §1, §2, §3, §4, §5, §6, §7, §8, §9, §10
# [6] = target: pig heart mitochondrial malate dehydrogenase (Sus scrofa, UniProt P00346); settings: concentration that inhibited chicken H4 lactate dehydrogenase by 59%; Everse et al 1971; cited from earlier work
# Chain of pig heart mitochondrial malate dehydrogenase (P00346 25-338): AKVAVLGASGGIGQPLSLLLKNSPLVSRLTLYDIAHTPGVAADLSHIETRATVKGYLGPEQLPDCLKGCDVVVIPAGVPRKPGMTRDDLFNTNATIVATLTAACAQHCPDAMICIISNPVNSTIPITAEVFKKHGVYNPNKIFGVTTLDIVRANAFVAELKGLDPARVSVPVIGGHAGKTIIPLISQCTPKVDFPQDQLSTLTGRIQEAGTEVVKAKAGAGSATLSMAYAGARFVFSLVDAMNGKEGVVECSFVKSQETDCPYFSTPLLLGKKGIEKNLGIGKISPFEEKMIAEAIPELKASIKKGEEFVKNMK
# [7] = test system: dogfish liver glutamate dehydrogenase; settings: concentration that inhibited chicken H4 lactate dehydrogenase by 59%; Everse et al 1971; cited from earlier work
# [8] = target: horse liver alcohol dehydrogenase (Equus caballus, UniProt P00327); settings: concentration that inhibited chicken H4 lactate dehydrogenase by 59%; Everse et al 1971; cited from earlier work
# Chain of horse liver alcohol dehydrogenase (P00327 whole entry): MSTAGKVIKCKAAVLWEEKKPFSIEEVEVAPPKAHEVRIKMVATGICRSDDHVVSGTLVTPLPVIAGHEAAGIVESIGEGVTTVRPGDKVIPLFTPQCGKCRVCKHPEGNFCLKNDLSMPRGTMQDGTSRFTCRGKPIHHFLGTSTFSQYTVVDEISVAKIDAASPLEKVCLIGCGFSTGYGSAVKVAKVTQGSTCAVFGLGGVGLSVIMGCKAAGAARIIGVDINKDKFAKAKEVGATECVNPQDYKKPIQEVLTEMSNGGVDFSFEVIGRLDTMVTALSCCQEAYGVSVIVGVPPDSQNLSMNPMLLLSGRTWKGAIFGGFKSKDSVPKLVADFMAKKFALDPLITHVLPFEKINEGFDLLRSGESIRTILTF
# [9] = target: chicken H4 lactate dehydrogenase (Gallus gallus, UniProt P00337); settings: concentration not given; Everse et al 1971; cited from earlier work
# Chain of chicken H4 lactate dehydrogenase (P00337 whole entry): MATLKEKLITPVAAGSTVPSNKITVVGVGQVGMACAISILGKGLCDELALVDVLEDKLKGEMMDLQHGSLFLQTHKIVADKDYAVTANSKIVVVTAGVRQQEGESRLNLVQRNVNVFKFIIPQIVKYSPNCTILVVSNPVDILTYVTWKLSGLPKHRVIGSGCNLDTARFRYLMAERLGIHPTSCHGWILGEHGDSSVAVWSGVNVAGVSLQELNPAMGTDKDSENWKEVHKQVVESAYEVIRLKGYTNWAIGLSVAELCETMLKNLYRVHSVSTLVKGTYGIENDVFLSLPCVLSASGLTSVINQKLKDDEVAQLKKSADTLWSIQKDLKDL
# [10] = target: yeast alcohol dehydrogenase (Saccharomyces cerevisiae, UniProt P00330); settings: concentration that inhibited chicken H4 lactate dehydrogenase by 59%; Everse et al 1971; cited from earlier work
# Chain of yeast alcohol dehydrogenase (P00330 whole entry): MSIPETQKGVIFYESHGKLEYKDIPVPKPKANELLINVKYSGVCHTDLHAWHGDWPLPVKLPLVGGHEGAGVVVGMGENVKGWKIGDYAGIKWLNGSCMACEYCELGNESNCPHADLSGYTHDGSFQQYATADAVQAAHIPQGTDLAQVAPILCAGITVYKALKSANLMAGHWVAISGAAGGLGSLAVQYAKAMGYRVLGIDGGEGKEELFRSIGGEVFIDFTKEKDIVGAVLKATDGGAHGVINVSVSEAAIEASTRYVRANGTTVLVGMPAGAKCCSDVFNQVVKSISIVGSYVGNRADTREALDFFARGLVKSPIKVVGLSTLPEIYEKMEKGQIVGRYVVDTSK
molecule,measurement,setting,value
CC=CC(=O)C(=O)O [2-oxo-3-pentenoic acid],action on lactate dehydrogenase,[1],"substrates, not inhibitors"
"CC(=O)C1=CN([C@@H]2O[C@H](COP(=O)(O)OP(=O)(O)OC[C@H]3O[C@@H](n4cnc5c(N)ncnc54)[C@H](O)[C@@H]3O)[C@@H](O)[C@H]2O)C=CC1CC(=O)C(=O)O (stereo partly drawn) [Acetyl analogue, reference compound]",pKi,[2],10.00
same,stability in solution,[3]; pH 7.0,reverts to free pyruvate and APAD
same,stability in solution,[3]; pH 11.0,relatively stable
same,Relative Activity (%) Rat Brain,[4]; additive 0.42 μM,61%
same,Relative Activity (%) Rat Brain,[4]; additive 0.84 μM,30%
same,Relative Activity (%) Beef Heart,[5]; additive 0.08 μM,90%
same,Relative Activity (%) Beef Heart,[5]; additive 0.42 μM,60%
same,Relative Activity (%) Beef Heart,[5]; additive 0.84 μM,21%
NC(=O)C1=CN([C@@H]2O[C@H](COP(=O)(O)OP(=O)(O)OC[C@H]3O[C@@H](n4cnc5c(N)ncnc54)[C@H](O)[C@@H]3O)[C@@H](O)[C@H]2O)C=CC1CC(=O)C(=O)O (stereo partly drawn) [NAD-pyruvate adduct],effect on pig heart mitochondrial malate dehydrogenase,[6],little effect
same,effect on dogfish liver glutamate dehydrogenase,[7],little effect
same,effect on horse liver alcohol dehydrogenase,[8],little effect
same,stability (loss of absorbance at 340 nm),[3]; Everse et al 1971,relatively unstable and easily oxidized
same,Relative Activity (%) Rat Brain,[4]; additive 34 μM,48%
same,inhibition of chicken H4 lactate dehydrogenase,[9],59%
same,effect on yeast alcohol dehydrogenase,[10],little effect
same,Relative Activity (%) Beef Heart,[5]; additive 34 μM,90%
same,Relative Activity (%) Beef Heart,[5]; additive 68 μM,62%
same,Relative Activity (%) Beef Heart,[5]; additive 136 μM,38%
same,pKi,"[5]; calculated from Table 1 data with Km for NADH 2.5 μM, standard equation for a competitive inhibitor, read-out: Ki",5.59
NC(=S)C1=CN([C@@H]2O[C@H](COP(=O)(O)OP(=O)(O)OC[C@H]3O[C@@H](n4cnc5c(N)ncnc54)[C@H](O)[C@@H]3O)[C@@H](O)[C@H]2O)C=CC1CC(=O)C(=O)O (stereo partly drawn) [Thio analogue],Relative Activity (%) Rat Brain,[4]; additive 1.4 μM,33%
same,Relative Activity (%) Beef Heart,[5]; additive 0.7 μM,38%
same,Relative Activity (%) Beef Heart,[5]; additive 1.4 μM,17%
Vinylglycolate,action on lactate dehydrogenase,[1],"substrates, not inhibitors"
